Assay results: US9775797B2, “Personal care composition” (Conopco, Inc., priority 2012, dated 2017)

Tested on: HaCaT and HeMnDP co-culture
Assay: coculture melanin content assay (after Calcein-AM viability check)
Type: cell-based
Details: melanin content vs control, 72 hrs incubation
Protocol: The samples at various concentrations were analysed for skin lightening efficacy using the coculture melanin content assay, the details of which are given below: Set up of Co-cultures: • 1. 4*10^4 HaCaT and 4×10^4 […] (1:1) per well (single wells/treatment) in 12-well Nunc plates on Day 0 are seeded so as to establish a co-culture system. • 2. The volume of media per well should be 1 mL of a 1:1 mix of Melanocyte Growth Media and Keratinocyte Growth Media • 3. 24 hrs later, fresh media containing actives are added. Again 1 mL of a 1:1 mix of MGM and KGM for active addition are used. • 4. Plates are incubated for 72 hrs in a 37° C. CO2 incubator. • 5. […] In the meantime, the fluorescence is measured (excitation at 490 nm and emission at 520 nm) using TECAN instrument after 30 min of dye incubation. • 5. After reading the plate, the buffer containing Calcein is removed and melanin content assay is then carried out. […] After the reading for Calcein-AM is taken, the buffer containing Calcein-AM is removed from all the wells. • 2. […] The absorbance is measured in the Lab-5 Tecan instrument at 405 nm. • 6. For non-cytotoxic concentrations (based on Calcein cut-off of ±15% of control), the average MCA is calculated and reported as MCA as percentage of the control sample. The % inhibition is then calculated. […]

O=C1C[C@@H](c2ccc(O)c(O[C@@H]3O[C@H](CO)[C@@H](O)[C@H](O)[C@H]3O)c2)Oc2cc(O[C@@H]3O[C@H](CO)[C@@H](O)[C@H](O)[C@H]3O)ccc21 [Butrin, butrin]
% Inhibition (sample concentration 0.5 ppm): 31%

O=c1cc(CO)occ1O [Example 3, Kojic Acid]
inhibition at 14.2 ppm (Homo sapiens, HaCaT, sample concentration 14.2 ppm): 22%
